The record followed here is patent US5519025A, “4-indolylpiperazinyl derivatives” (American Home Products Corporation, priority 1995, dated 1996).

In the assay the target is T1, 5-HT1A serotonin receptors (Rattus norvegicus, UniProt P19327).
T1 construct: rat hippocampal membrane homogenate; from tissue; host or cells: rat hippocampus, membrane homogenate
T1 sequence (P19327 1-422): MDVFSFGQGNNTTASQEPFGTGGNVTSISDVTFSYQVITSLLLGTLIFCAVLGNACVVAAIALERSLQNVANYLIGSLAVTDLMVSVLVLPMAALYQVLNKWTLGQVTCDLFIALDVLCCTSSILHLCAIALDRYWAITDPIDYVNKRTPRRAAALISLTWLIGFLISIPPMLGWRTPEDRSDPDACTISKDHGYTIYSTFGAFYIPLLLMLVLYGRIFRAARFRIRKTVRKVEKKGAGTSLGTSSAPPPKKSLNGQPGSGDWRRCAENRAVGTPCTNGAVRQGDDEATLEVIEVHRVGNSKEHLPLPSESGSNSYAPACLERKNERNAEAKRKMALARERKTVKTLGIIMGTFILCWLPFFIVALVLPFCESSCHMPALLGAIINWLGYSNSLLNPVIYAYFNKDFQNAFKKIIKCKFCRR
Briefly: displacement of [3H] 8-OHDPAT from 5-HT1A serotonin receptors in rat hippocampal membrane homogenate. Conditions: [3H] 8-OHDPAT displacement. It counts as binding. The text has this: High affinity for the serotonin 5-HT1A receptor was established by testing the claimed compound's ability to displace [^3 H] 8-OHDPAT (dipropylaminotetralin) from the 5-HT1A serotonin receptors in rat hippocampal membrane homogenate following the procedure of B. S. Alexander and M. D. Wood, J. Pharm. Pharmacol. 1988, 40, 888-891. […] Based upon this receptor binding data, the compounds of this invention are characterized as anxiolytic and/or antidepressant agents useful in the treatment of depression and in alleviating anxiety. As such, the compounds may be administered neat or with a pharmaceutical carrier to a patient in need thereof. The pharmaceutical carrier may be solid or liquid.

Compound `CC1(C(=O)N[C@@H](CN2CCN(c3cccc4[nH]ccc34)CC2)c2ccccc2)CCCCC1` [Example 1] displayed an IC50 of 4.33 nM.
Next, `CC1(C(=O)N[C@H](CN2CCN(c3cccc4[nH]ccc34)CC2)c2ccccc2)CCCCC1` [Example 2]: 35.5 nM.
